According to patent US12421230B2, “Tricyclic heteroaryl compounds useful as IRAK4 inhibitors” (BRISTOL-MYERS SQUIBB COMPANY, priority 2020, dated 2025):
Where a name gives a salt, the structure may show the parent alone.

Tests used:
[1] = target: T1, IRAK4 (Homo sapiens, UniProt Q9NWZ3); test: IRAK4 Inhibition Assay; assay type: biochemical; conditions: ATP 500 μM; fluoresceinated peptide 1.5 μM; IRAK4 0.6 nM; 60 min room temperature; Caliper LABCHIP
T1 sequence (Q9NWZ3 1-460): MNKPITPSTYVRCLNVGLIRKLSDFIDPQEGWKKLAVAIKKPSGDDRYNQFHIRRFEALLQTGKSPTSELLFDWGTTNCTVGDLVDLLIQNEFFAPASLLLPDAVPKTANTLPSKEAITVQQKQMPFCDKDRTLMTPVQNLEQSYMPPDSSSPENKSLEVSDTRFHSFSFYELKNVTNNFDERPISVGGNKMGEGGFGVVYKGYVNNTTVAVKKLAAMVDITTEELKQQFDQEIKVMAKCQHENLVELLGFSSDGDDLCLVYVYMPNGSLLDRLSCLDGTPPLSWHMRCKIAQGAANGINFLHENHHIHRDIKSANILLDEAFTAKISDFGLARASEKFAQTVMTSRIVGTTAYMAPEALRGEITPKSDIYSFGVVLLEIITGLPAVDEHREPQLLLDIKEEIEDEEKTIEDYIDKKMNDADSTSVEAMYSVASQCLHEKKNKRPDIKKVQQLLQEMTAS
Description: The assays were performed in U-bottom 384-well plates. The final assay volume was 30 μL prepared from 15 μL additions of enzyme and substrates (fluoresceinated peptide and ATP) and test compounds in assay buffer (20 mM HEPES pH 7.2, 10 mM MgCl2, 0.015% Brij 35 and 4 mM DTT). The reaction was initiated by the combination of IRAK4 with substrates and test compounds. The reaction mixture was incubated at room temperature for 60 min. and terminated by adding 45 μL of 35 mM EDTA to each sample. The reaction mixture was analyzed on the Caliper LABCHIP® 3000 (Caliper, Hopkinton, MA) by electrophoretic separation of the fluorescent substrate and phosphorylated product. Inhibition data were calculated by comparison to no enzyme control reactions for 100% inhibition and vehicle-only reactions for 0% inhibition. The final concentrations of reagents in the assays are ATP, 500 μM; FL-IPTSPITTTYFFFKKK peptide 1.5 μM; IRAK4, 0.6 nM; and DMSO, 1.6%.

[2] = test system: Human whole blood; test: IRAK4 Whole Blood Assay; assay type: cell-based; conditions: stimulated with TLR2 agonist lipoteichoic acid 10 μg/mL for 5 hours, IL-6 levels
Description: Human whole blood containing the anti-coagulant ACD-A was plated in 384-well plate (25 μL/well) and incubated with compounds for 60 minutes at 37° C. in a 5% CO2 incubator. The blood was stimulated with a TLR2 agonist, 10 μg/mL final concentration of lipoteichoic acid (Invivogen, San Diego, CA) in 25 μL RPMI (Gibco) for 5 hours in a 5% CO2 incubator. At the end of the incubation, plates were centrifuged at 2300 rpm for 5 minutes. Supernatants were harvested and analyzed for IL-6 levels by Flow Cytometry beads assay (BD Biosciences, San Jose, CA).

| Compound | IC50 [1] [nM] | EC50 [2] [nM] |
| --- | --- | --- |
| CC(C)Nc1c(C(=O)N[C@H]2CC[C@H](O)CC2)cnc2c1[nH]c1cc(C#N)ccc12 [Example 10, 7-cyano-N-((1R,4R)-4-hydroxycyclohexyl)-4-(isopropylamino)-5H-pyrido[3,2-b]indole-3-carboxamide] | 12 | 2890 |
| COCCNC(=O)c1cnc2c([nH]c3cc(C#N)ccc32)c1NC(C)C [Example 17, 7-cyano-4-(isopropylamino)-N-(2-methoxyethyl)-5H-pyrido[3,2-b]indole-3-carboxamide] | 13 | 4730 |
| CC(C)Nc1c(C(=O)N[C@H]2CC[C@H](N)CC2)cnc2c1[nH]c1cc(C#N)ccc12 [Example 12, N-((1R,4R)-4-aminocyclohexyl)-7-cyano-4-(isopropylamino)-5H-pyrido[3,2-b]indole-3-carboxamide] | 8.6 | 2720 |
| CC(C)(O)[C@H](F)CNC(=O)c1cnc2c([nH]c3cc(C#N)ccc32)c1NC1CCC1 [Example 4, (R)-7-cyano-4-(cyclobutylamino)-N-(2-fluoro-3-hydroxy-3-methylbutyl)-5H-pyrido[3,2-b]indole-3-carboxamide] | 2 | 1990 |
| C[C@@H](CO)Nc1c(C(=O)NCCC(C)(C)O)cnc2c1[nH]c1cc(C#N)ccc12 [Example 30, (S)-7-cyano-N-(3-hydroxy-3-methylbutyl)-4-((1-hydroxypropan-2-yl)amino)-5H-pyrido[3,2-b]indole-3-carboxamide] | 5.3 | 3380 |
| CC(=O)N[C@H]1CC[C@H](NC(=O)c2cnc3c([nH]c4cc(C#N)ccc43)c2NC(C)C)CC1 [Example 13, N-((1R,4R)-4-acetamidocyclohexyl)-7-cyano-4-(isopropylamino)-5H-pyrido[3,2-b]indole-3-carboxamide] | 3.7 | 2210 |
| CC(C)Nc1c(C(=O)NCCC(F)(F)F)cnc2c1[nH]c1cc(C#N)ccc12 [Example 27, 7-cyano-4-(isopropylamino)-N-(3,3,3-trifluoropropyl)-5H-pyrido[3,2-b]indole-3-carboxamide] | 13 | > 10000 |
| CC(C)Nc1c(C(=O)NCc2ncn[nH]2)cnc2c1[nH]c1cc(C#N)ccc12 [Example 20, N-((1H-1,2,4-triazol-5-yl)methyl)-7-cyano-4-(isopropylamino)-5H-pyrido[3,2-b] indole carboxamide] | 14 | 1050 |
| CC(C)(O)[C@H](F)CNC(=O)c1cnc2c([nH]c3cc(C#N)ccc32)c1NC1COC1 [Example 22, (R)-7-cyano-N-(2-fluoro-3-hydroxy-3-methylbutyl)-4-(oxetanylamino)-5H-pyrido[3,2-b]indole-3-carboxamide] | 2.1 | 230 |
| CC(C)Nc1c(C(=O)NCc2nccs2)cnc2c1[nH]c1cc(C#N)ccc12 [Example 18, 7-cyano-4-(isopropylamino)-N-(thiazol-2-ylmethyl)-5H-pyrido[3,2-b]indole-3-carboxamide] | 17 | 8170 |
| CC(C)Nc1c(C(=O)NC2CCCOC2)cnc2c1[nH]c1cc(C#N)ccc12 (centres unmarked) [Example 6, 7-cyano-4-(isopropylamino)-N-(tetrahydro-2H-pyran-3-yl)-5H-pyrido[3,2-b]indole-3-carboxamide] | 37 | – |

Results, then the molecule that gave them:

| IC50 [1] [nM] | EC50 [2] [nM] | Compound |
| --- | --- | --- |
| 3.8 | > 20000 | CC(=O)NC(C)(C)CCNC(=O)c1cnc2c([nH]c3cc(C#N)ccc32)c1NC(C)C [Example 60, N-(3-acetamido-3-methylbutyl)-7-cyano-4-(isopropylamino)-5H-pyrido[3,2-b]indole-3-carboxamide] |
| 7.1 | > 20000 | CC(C)Nc1c(C(=O)NC2CCN(S(C)(=O)=O)CC2)cnc2c1[nH]c1cc(C#N)ccc12 [Example 63, 7-cyano-4-(isopropylamino)-N-(1-(methylsulfonyl)piperidin-4-yl)-5H-pyrido[3,2-b]indole-3-carboxamide] |
| 11 | 990 | CC(C)Nc1c(-c2cc(C3CCOCC3)no2)cnc2c1[nH]c1cc(C#N)ccc12 [Example 77, 4-(isopropylamino)-3-(3-(tetrahydro-2H-pyran-4-yl)isoxazol-5-yl)-5H-pyrido[3,2-b]indole-7-carbonitrile] |
| 14 | > 10000 | CC(C)(O)CCNC(=O)c1cnc2c([nH]c3cc(C#N)ccc32)c1N [Example 54, 4-amino-7-cyano-N-(3-hydroxy-3-methylbutyl)-5H-pyrido[3,2-b] indole-3-carboxamide] |
| 9.5 | > 20000 | CC(C)Nc1c(C(=O)NCCC(F)F)cnc2c1[nH]c1cc(C#N)ccc12 [Example 31, 7-cyano-N-(3,3-difluoropropyl)-4-(isopropylamino)-5H-pyrido[3,2-b]indole-3-carboxamide] |
| 9.1 | 3320 | CC(C)(O)CCNC(=O)c1cnc2c([nH]c3cc(C#N)ccc32)c1NCC(F)F [Example 36, 7-cyano-4-((2,2-difluoroethyl)amino)-N-(3-hydroxy-3-methylbutyl)-5H-pyrido[3,2-b]indole-3-carboxamide] |
| 7.2 | > 20000 | CC(C)Nc1c(C(=O)NCC2CCS(=O)(=O)C2)cnc2c1[nH]c1cc(C#N)ccc12 (centres unmarked) [Example 61, 7-cyano-N-((1,1-dioxidotetrahydrothiophen-3-yl)methyl)-4-(isopropylamino)-5H-pyrido[3,2-b]indole-3-carboxamide] |
| 16 | 1550 | CC(C)Nc1c(C(=O)NCC(F)(F)CN)cnc2c1[nH]c1cc(C#N)ccc12 [Example 51, N-(3-amino-2,2-difluoropropyl)-7-cyano-4-(isopropylamino)-5H-pyrido[3,2-b]indole-3-carboxamide] |
| 3.9 | > 20000 | CC(C)Nc1c(C(=O)N[C@H]2C[C@H](C(C)(C)O)C2)cnc2c1[nH]c1cc(C#N)ccc12 [Example 39, 7-cyano-N-((1R,3R)-3-(2-hydroxypropan-2-yl)cyclobutyl)-4-(isopropylamino)-5H-pyrido[3,2-b] indole-3-carboxamide] |
| 1700 | – | CC(C)Cc1nc(-c2cnc3c([nH]c4cc(C#N)ccc43)c2NC(C)C)n[nH]1 [Example 70, 3-(5-isobutyl-1H-1,2,4-triazol-3-yl)-4-(isopropylamino)-5H-pyrido[3,2-b]indole-7-carbonitrile, TFA] |
| 22 | – | CC(C)Nc1c(-c2cc(C3CCCNC3)no2)cnc2c1[nH]c1cc(C#N)ccc12 (centres unmarked) [Example 79, 4-(isopropylamino)-3-(3-(piperidin-3-yl)isoxazol-5-yl)-5H-pyrido[3,2-b]indole-7-carbonitrile] |
| 360 | – | CCCc1noc(-c2cnc3c([nH]c4cc(C#N)ccc43)c2NC(C)C)n1 [Example 72, 4-(isopropylamino)-3-(3-propyl-1,2,4-oxadiazol-5-yl)-5H-pyrido[3,2-b]indole-7-carbonitrile] |
| 1.5 | – | CC(C)CCn1cc(-c2cnc3c([nH]c4cc(C#N)ccc43)c2NC(C)C)nn1 [Example 73, 3-(1-isopentyl-1H-1,2,3-triazol-4-yl)-4-(isopropylamino)-5H-pyrido[3,2-b]indole-7-carbonitrile] |
| 510 | – | COc1ccc(CNc2c(C(=O)NCCC(C)(C)O)cnc3c2[nH]c2cc(C#N)ccc23)cc1OC [Example 56, 7-cyano-4-((3,4-dimethoxybenzyl)amino)-N-(3-hydroxy-3-methylbutyl)-5H-pyrido[3,2-b]indole-3-carboxamide] |
